Experimental data published in paper PMC12339163, “Combining Plant Bioactives With Antibiotics for Enhanced Antibiofilm Activity Against Uropathogenic Staphylococcus spp. and Cytotoxicity Evaluation” (Advances in Pharmacological and Pharmaceutical Sciences, 2025).
Converted amounts (≈) assume the structure as drawn. “And” between values parts separate entries of the source, which are not always exact repeats. Identical values can stand only once. Like-named read-outs stand apart in the source and are kept apart here.

Experiments:
[1] = tested on: S. aureus biofilm; assay: Biofilm eradication assay (MBEC, MTT); type: cell-based, Staphylococcus aureus; settings: Staphylococcus aureus, 24 h; geometric mean, S. aureus (n = 3)
Description: The determination of the biofilm eradication potential of NPs and ATBs was performed as previously described. Briefly, 100 µL of bacterial inoculum (1.5 × 10^6 CFU/mL) and 100 µL of MHB + 1% glucose were introduced into the microplate, incubated at 37°C for 24 h, and the microplate was gently emptied and washed three times with PBS. Then, 200 µL of ATBs or NPs at respective concentrations ranging from 8 to 1024 µg/mL and from 16 to 2048 µg/mL were incubated at 37°C for 24 h. Once incubation was completed, the microplate was processed as described above, and the percentage of biofilm eradication was calculated using the formula below. The minimal biofilm eradicating concentration (MBEC) was recorded as the lowest concentration of the test sample that reduces 100% of biofilm:(2) % biofilm eradication=ODcontrol−ODblank−ODtest−ODblank/ODcontrol−ODblank×100.

[2] = tested on: S. epidermidis; assay: MIC and MBC, broth microdilution; type: cell-based, Staphylococcus epidermidis; settings: Staphylococcus epidermidis, geometric mean, S. epidermidis (n = 3); for MIC: read-out: MIC; for MBC: read-out: MBC
Description: Seven clinical isolates of Staphylococcus spp. including 2 S. aureus, 3 S. saprophyticus, and 2 S. epidermidis were used. They were isolated from urine samples in our previous study. Two reference strains (S. aureus ATCC1026 and S. epidermidis ATCC35984) obtained from the American Type Culture Collection were also included. They were kept in the mixture of glycerol and Mueller Hinton Broth (MHB) (1:1) at −20°C, and the activation was achieved using the streak technique on Mueller Hinton agar (MHA) medium.
The MICs of ATBs and NPs were determined by the broth microdilution method as previously described. NPs and ATBs were, respectively, prepared at 4096 µg/mL and 512 µg/mL and serially diluted twofold with MHB in a 96-well microplate at a volume of 100 µL. Then, the wells were filled with 100 µL of inoculum (1.5 × 10^6 CFU/mL) to give final concentrations ranging from 1024 µg/mL to 0.5 µg/mL and 128 µg/mL to 0.062 µg/mL of NPs and ATBs, respectively. The microplates were incubated for 24 h at 37°C. Wells containing only bacterial inoculum were used as the negative control. After incubation, a volume of 40 µL of INT solution (0.2 mg/mL) was added to each well, and the microplate was incubated at 37°C for 30 min. Viable bacteria cells change the yellow dye of INT to a pink color. The MIC was considered as the lowest concentration of the sample at which there was no change in the coloration of the medium, corresponding to the complete inhibition of microbial growth.
All tests were performed in triplicate.

[3] = tested on: Staphylococcus epidermidis biofilm; assay: Checkerboard combination assay, biofilm eradication; type: cell-based; settings: for MBEC Alone NPs: natural product alone
Description: The effect of the combination of ATBs with NPs on the preformed biofilm was evaluated by determining the FICI, as described above for biofilm formation, with slight modifications. After biofilm formation for 24 h, the plate was gently emptied and washed three times with PBS. Then, 50 µL of ATBs and 50 µL of NPs were introduced to the plate. The final concentration ranges from 0.0625 to 128 µg/mL and from 4 to 512 µg/mL for ATBs and NPs, respectively, and is incubated at 37°C for 24 h. After incubation, the medium was gently removed, and the plate was washed three times with PBS. At the end of the incubation time, the MTT reduction assay was performed, and the MBEC was determined. To assess the effect of the combination, the FICI was calculated and interpreted as described above.

[4] = tested on: planktonic cells of Staphylococcus epidermidis; assay: Checkerboard combination assay, planktonic cells; type: cell-based; settings: planktonic S. epidermidis, mean MIC; for MIC alone, NPs: natural product alone, in µg/mL; for MIC alone, ATB: antibiotic alone
Description: The checkerboard assay, as previously described, was used for the determination of the fractional inhibitory concentration index (FICI). Briefly, 50 µL of MHB was distributed into each well of a 96-well microplate. ATBs were serially diluted along the abscissa, and NPs were serially diluted along the ordinate. Then, 100 µL of bacterial inoculum (1.5 × 10^6 CFU/mL) was added to each well and incubated at 37°C for 24 h. The final concentration ranged from 0.125 to 128 µg/mL for ATBs and 4–512 µg/mL for NPs. After incubation, a volume of 40 µL of INT solution (0.2 mg/mL) was added to each well, and the microplate was incubated at 37°C for 30 min. The wells containing bacterial inoculum and MHB were used as a positive control, while wells containing only MHB + 1% glucose were used as a negative control and used as a blank. Viable bacteria cells change the yellow dye of INT to a pink color. The MICs were considered to be the lowest NP concentrations that prevented the color change medium. Subsequently, the FICI was calculated according to the formula FICI = (MIC of the ATBs in combination/MIC of the ATBs alone) + (MIC of a natural substance in combination/MIC of the natural substance alone). FICI values were interpreted as follows: synergy when FICI ≤ 0.5; additive when 0.5 < FICI ≤ 1; indifference when 1 < FICI ≤ 4; and antagonism when FICI > 4.

[5] = tested on: Staphylococcus aureus biofilm; assay: Checkerboard combination assay, biofilm inhibition; type: cell-based
Description: (§1) The effect of the combination of ATBs with NPs on biofilm formation was evaluated by determining the FICI, as described above for planktonic cells, except that the MHB was supplemented with 1% glucose.
(§2) The lowest MBICs of ATBs or NPs that inhibited metabolic activity in the biofilm were determined as described above. The FICI was used to perform the effect of combination and calculated as follows: FICI: (MBIC of ATBs in combinations/MBIC of ATBs alone) + (MBIC of NP in the combinations/MBIC of NP alone). FICI was interpreted as indicated above.

[6] = tested on: Staphylococcus epidermidis biofilm; assay: Checkerboard combination assay, biofilm inhibition; type: cell-based
Description: as §1, §2

[7] = tested on: Staphylococcus saprophyticus biofilm; assay: Checkerboard combination assay, biofilm inhibition; type: cell-based
Description: as §1, §2

[8] = S. aureus, biofilm inhibition, mean
[9] = natural product alone, S. aureus biofilm inhibition
[10] = S. epidermidis, biofilm inhibition, mean
[11] = natural product alone, S. epidermidis biofilm inhibition
[12] = S. saprophyticus, biofilm inhibition, mean
[13] = natural product alone, S. saprophyticus biofilm inhibition
[14] = S. epidermidis biofilm eradication, antibiotic alone, mean MBEC
[15] = antibiotic alone, S. aureus biofilm inhibition
[16] = antibiotic alone, S. epidermidis biofilm inhibition
[17] = antibiotic alone, S. saprophyticus biofilm inhibition

| MIC [2] [µg/mL] | MIC alone, ATB [4] [µg/mL] | SMILES | minimal effective concentration [1] [µg/mL] | MBC ([2]; natural products) [µg/mL] | MBIC alone, NPs [5, 9] [µg/mL] | MBIC alone, NPs [6, 11] [µg/mL] | MBIC alone, NPs [7, 12] [µg/mL] | MBIC alone, NPs [7, 13] [µg/mL] | MBC ([2]; antibiotics) [µg/mL] | MBEC Alone ATB [3, 14] [µg/mL] | MBIC alone, ATB [5, 8] [µg/mL] | MBIC alone, ATB [5, 15] [µg/mL] | MBIC alone, ATB [6, 10] [µg/mL] | MBIC alone, ATB [6, 16] [µg/mL] | MBIC alone, ATB [7, 12] [µg/mL] | MBIC alone, ATB [7, 17] [µg/mL] | also measured |
| --- | --- | --- | --- | --- | --- | --- | --- | --- | --- | --- | --- | --- | --- | --- | --- | --- | --- |
| 341 (≈ 2270 µM) | – | Cc1ccc(C(C)C)c(O)c1 [Thymol, thymol] | 107 | > 1020 | 341.33 | 213.33 | 128 | 128 | – | – | – | – | – | – | – | – | MBEC Alone NPs ([3]; S. epidermidis biofilm eradication, mean MBEC, listed as Thy): 128 µg/mL and 106.66 µg/mL; MIC alone, NPs [4]: 426.66; MBIC alone, NPs [5, 8]: 341.33 µg/mL; MBIC alone, NPs [6, 10]: 213.33 µg/mL |
| 213 | – | COc1ccc2cc3[n+](cc2c1OC)CCc1cc2c(cc1-3)OCO2 [Berberine, berberine] | 149 | > 1020 | 170.66 | – | 106.66 | – | – | – | – | – | – | – | – | – | MBEC Alone NPs ([3]; S. epidermidis biofilm eradication, mean MBEC, listed as Ber): 170.66 µg/mL and 149.33 µg/mL and 213.33 µg/mL; MBIC alone, NPs ([7]; natural product alone, S. saprophyticus biofilm inhibition, listed as Ber): 74.66 µg/mL and 85.33 µg/mL and 106.66 µg/mL |
| 42.7 (≈ 93.9 µM) | 42.7 | Cc1nnc(SCC2=C(C(=O)O)N3C(=O)[C@@H](NC(=O)Cn4cnnn4)[C@H]3SC2)s1 [Cefazolin, cefazolin] | 42.7 | – | – | – | – | – | 139 (≈ 305 µM) | 10.66 | 4.66 | 4.66 | 8.66 | 8.66 | 8.33 | 8.33 | MBEC Alone ATB ([3]; S. epidermidis, biofilm eradication, mean): 42.66 µg/mL |
| 427 (≈ 2510 µM) | – | O=C(O)c1cc(O)c(O)c(O)c1 [Gallic acid, 3,4,5-trihydroxybenzoic acid] | 299 | > 1020 | 512 | 512 | – | 426.66 | – | – | – | – | – | – | – | – | MBEC Alone NPs ([3]; S. epidermidis biofilm eradication, mean MBEC, listed as Gal): 266.66 µg/mL and 298.66 µg/mL and 426.66 µg/mL; MIC alone, NPs ([4]; listed as Gal): 426.66 and 277.33 |
| 1.16 (≈ 1.98 µM) | 1.16 | NCC[C@H](O)C(=O)N[C@@H]1C[C@H](N)[C@@H](O[C@H]2O[C@H](CN)[C@@H](O)[C@H](O)[C@H]2O)[C@H](O)[C@H]1O[C@H]1O[C@H](CO)[C@@H](O)[C@H](N)[C@H]1O [Amikacin, amikacin] | 13.3 | – | – | – | – | – | > 128 | 21.33 | 1.83 | 1.83 | 3.08 | 3.08 | 2.08 | 2.08 | – |
